For experiment [1], the system named is RIDD (IRE1α-dependent mRNA decay). In words: Real-time PCR of RIDD mRNA targets in INS-1 cells overexpressing IRE1α (Dox). The following applies: 20 μM, 5 ng/mL Dox. Type of experiment: cell-based, rat. The procedure: (§1) RNA Isolation, Quantitative Real-Time PCR, and Primers
(§2) INS-1 or isogenic IRE1α-overexpressing INS-1 cells were plated onto Poly-D-Lysine coated tissue culture plate and grown for 48 hrs. Inhibitors or DMSO were added to the media and incubated for 1 hour at 37° C. with 5% CO2 prior to addition of ER stress agents or Dox as indicated. RNA was isolated from whole cells using either QIAGEN RNeasy Mini kits or Trizol (Invitrogen) and reverse transcribed as above to obtain total cDNA. Then, XBP-1 primers were used to amplify an XBP-1 amplicon spanning the 26 nt intron from the cDNA samples in a regular 3-step PCR. Thermal cycles were: 5 min at 95° C., 30 cycles of 30 s at 95° C., 30 s at 60° C., and 1 min at 72° C., followed by 72° C. for 15 min, and hold at 4° C. Primers used for XBP-1 mRNA splicing were as follows: sense primer XBP1.3 S (5′ […]-3′ (SEQ ID NO:2)) and antisense primer XBP1.2AS (5′-[…]-3′ (SEQ ID NO:3)). PCR fragments were then digested by PstI, resolved on 3% agarose gels, stained with EtBr and quantified by densitometry using ImageJ (NIH). For standard mRNA detection, generally […] total RNA was reverse transcribed using the QuantiTect Reverse Transcription Kit (QIAGEN). For qPCR, we used SYBR green (QIAGEN) and StepOnePlus Real-Time PCR System (Applied Biosystems). Thermal cycles were: 5 min at 95° C., 40 cycles of 15 sec at 95° C., 30 sec at 60° C. Gene expression levels were normalized to Beta Actin. Primers used for qPCR of RIDD targets were as follows: Beta Actin Fwd: 5′-[…]-3′ (SEQ ID NO:4), Beta Actin Rev: 5′-[…]-3′ (SEQ ID NO:5), Insulin 1 Fwd: 5′-GTCCTCTGGGAGCCCAAG-3′ (SEQ ID NO:6), Insulin 1 Rev: 5′-ACAGAGCCTCCACCAGG-3′ (SEQ ID NO:7), Insulin 2 Fwd: 5′-ATCCTCTGGGAGCCCCGC-3′ (SEQ ID NO:8), Insulin 2 Rev: 5′-AGAGAGCTTCCACCAAG-3′ (SEQ ID NO:9), Blos1 Fwd: 5′-[…]-3′ (SEQ ID NO:10), and Blos1 Rev: 5′-[…]-3′ (SEQ ID NO:11).
Real-Time PCR (Q-PCR) used SYBR green and Step OnePlus Real-Time PCR System (Applied Biosystems). Thermal cycles were: 5 min at 95° C., 40 cycles of 15 s at 95° C., 30 s at 60° C. Gene expression levels were normalized to GAPDH. Q-PCR Sense/antisense primers used: Rat GAPDH, 5′-[…]-3′ (SEQ ID NO:14) and 5′-[…]-3′ (SEQ ID NO:15); Rat Ins1, 5′-GTCCTCTGGGAGCCCAAG-3′ (SEQ ID NO:6) and 5′-ACAGAGCCTCCACCAGG-3′ (SEQ ID NO:7); Rat Pdia4, 5′-CGTCTCGCCCTGATTCGT-3′ (SEQ ID NO:16) and 5′-[…]-3′ (SEQ ID NO:17); Rat Blos1, 5′-[…]-3′ (SEQ ID NO:18) and 5′-TGTCCAGTTCGATGCTCCG-3′ (SEQ ID NO:19).
Real-time PCR for FIGS. 34A-34F: Real-Time PCR (Q-PCR) used SYBR green and Step OnePlus Real-Time PCR System (Applied Biosystems). Thermal cycles were: 5 min at 95° C., 40 cycles of 15 s at 95° C., 30 s at 60° C. Gene expression levels were normalized to GAPDH. Q-PCR Sense/antisense primers used: Rat GAPDH, 5′-[…]-3′ (SEQ ID NO:20) and 5′-[…]-3′ (SEQ ID NO:21); Rat Ins1, 5′-GTCCTCTGGGAGCCCAAG-3′ (SEQ ID NO:6) and 5′-ACAGAGCCTCCACCAGG-3′ (SEQ ID NO:7); Rat Ins2, 5′-ATCCTCTGGGAGCCCCGC-3′ (SEQ ID NO:8) and 5′-AGAGAGCTTCCACCAAG-3′ (SEQ ID NO:9); Rat Pdia4, 5′-[…]-3′(SEQ ID NO:22) and 5′-[…]-3′ (SEQ ID NO:23); Rat Blos1, 5′-[…]-3′ (SEQ ID NO:18) and 5′-TGTCCAGTTCGATGCTCCG-3′ (SEQ ID NO:19).
(Real-time PCR tracks product formation cycle by cycle.)

The subject of experiment [2] is XBP1 mRNA splicing. In words: XBP1 mRNA splicing in INS-1 cells conditionally overexpressing IRE1α (Dox). Type of experiment: cell-based, rat. The following applies: 5 ng/mL Dox; 20 μM for XBP1s immunoblot. The procedure: as §1, §2
RNA was extracted using Trizol (Invitrogen), DNaseI treated, and cDNA products encompassing the intron amplified by QuantiTect Reverse Transcription Kit (Qiagen). sense Primer rXBP Forward (5′-[…]-3′ (SEQ ID NO:12)) and antisense primer rXBP Reverse (5′-[…]-3′ (SEQ ID NO:13)) were used. PCR fragments were digested by PstI, resolved on 3% agarose gels, stained with EtBr, and quantified by densitometry.
XBP1 splicing for FIGS. 33A-33F: RNA was extracted using Trizol (Invitrogen), cDNA products encompassing the intron amplified by QuantiTect Reverse Transcription Kit (Qiagen). Sense Primer rXBP splicing Forward (5′-[…]-3′ (SEQ ID NO:12)) and antisense primer rXBP splicing Reverse (5′-[…]-3′ (SEQ ID NO:13)) were used. PCR fragments were digested by PstI, resolved on 3% agarose gels, stained with EtBr, and quantified by densitometry.
(A western blot detects proteins with antibodies after separation by electrophoresis.)

Take `O=S(=O)(CC(F)(F)F)Nc1ccc(Oc2ncccc2-c2ccnc(N[C@H]3CCCNC3)n2)c2ccccc12` (stereo in doubt) [PAIR1, 2,2,2-trifluoro-N-(4-(3-(2-(piperidin-3-ylamino)pyrimidin-4-yl)pyridin-2-yloxy)naphthalen-1-yl)ethanesulfonamide]: the “mRNA decay substrates Blos1, Ins1 and Ins2” value in experiment [1] was “rescued”. Besides, in experiment [2], the “XBP1 mRNA splicing and expression of Xbp1s” value was “largely preserved”.

On to `O=S(=O)(CCC(F)(F)F)Nc1ccc(Oc2ncccc2-c2ccnc(NC3CCCNC3)n2)c2ccccc12` (stereo not shown) [KIRA9, 3,3,3-trifluoro-N-(4-(3-(2-(piperidin-3-ylamino)pyrimidin-4-yl)pyridin-2-yloxy)naphthalen-1-yl)propane-1-sulfonamide], for which, in experiment [1], the “mRNA decay substrates Blos1, Ins1 and Ins2” value is “rescued”. In addition, the “XBP1 mRNA splicing and expression of Xbp1s” value in experiment [2] is “more vigorously inhibited these outputs”.
